{
  "source": "patent US20240066008A1",
  "about": "“Device and Antitumor Drug for the Treatment of Neoplastic Cells” (Telea Electronic Engineering SRL, priority 2021, published 2024)",
  "system": "A172 glioblastoma cells",
  "assay": "Cell viability, Trypan blue exclusion assay",
  "format": "cell-based",
  "conditions": "Homo sapiens, A 172, TMZ 10 μM for 144 hours in combination with 24-hour QMR treatment (4 MHz current waves), vs TMZ alone, FIG. 12b, read-out: cell viability reduced more than the reduction obtained in cells treated with TMZ drug alone",
  "procedure": "Glioblastoma cell lines A172, T98G and U87MG were used. A172 and T98G cells (Sigma-Aldrich, St. Louis, MO, USA) were cultured in Dulbecco's Modified Eagle's Medium/Nutrient Mixture F-12 (DMEM/F12 GlutaMAX, Gibco, Thermo Fisher Scientific, Waltham, MA, USA) added with 10% foetal bovine serum (FBS) (Qualified Australian, Gibco, Thermo Fisher Scientific) and 1% penicillin/streptomycin (Sigma-Aldrich).\nThe cell lines were stimulated with QMR using a prototype QMR device from the company Telea (Telea Electronic Engineering, Sandrigo, VI, Italy). The device, suitably adapted for the present in vitro experiments, generated high-frequency sinusoidal alternating electric current waves of 4 MHz with harmonics from 4 to 64 MHz and had the following data: power supply 100÷230 V˜50/60 Hz; maximum output power, 5 W/400Ω.\nQMR was applied to the cells using a pair of electrodes that were placed inside a 100 mm Petri dish, at the edge, and connected to the generator device. […] This value was measured by means of three independent measurements with a data-logger probe (iLog, Escort Scunthorpe, UK) placed in the culture medium. […]\nFor these analyses, the cells were treated for 144 hours with 10-25 μM of TMZ administered at the same time as or after QMR stimulation. […] Cell viability, apoptosis and the cell cycle were assessed after 144 hours. […]",
  "data": [
    {"smiles": "Cn1nnc2c(C(N)=O)ncn2c1=O", "note": "[TMZ, temozolomide]", "values": [
      {"measurement": "cytotoxicity at 10 µM", "result": "~12", "unit": "%"}
    ]}
  ]
}
